Measurements published in patent US8338473B2, “Derivatives of psammaplin A, a method for their synthesis and their uses for the prevention or treatment of cancer” (Centre National de la Recherche Scientifique, priority 2007, dated 2012).

What was measured:
[1] = system: U937 cells; experiment: Caspase 3 apoptotic assay in U937 cells; assay type: cell-based, human; conditions: U937, 24 hrs
Method: (§1) FIG. 1: a) Cell cycle analysis of U937 cells treated for 30 hrs with the indicated compounds used at 1 and 5 μM; b) Caspase 3 apoptotic assay of the indicated compounds after 24 hrs of treatment in the U937 cells; c) Tubulin acetylation and p21 expression levels at 6 and 16 hrs after treatment with the indicated compounds; total tubulin expression levels are used for equal loading; d) Histone H3 acetylation and K9 H3 methylation expression levels at 6 and 16 hrs after treatment with the indicated compounds; total tubulin expression levels are used for equal loading; e) K9, K14, K18 histone H3 acetylation expression levels at 6 and 16 hrs after treatment with the indicated compounds; total ERKs expression levels are used for equal loading; f) HDAC1 enzymatic assay: IP-HDAC1 is incubated with the indicated inhibitors for 24 Hrs; activity is measured as ^3H-acetyl release; g) HDAC4 enzymatic assay: IP-HDAC4 is incubated with the indicated inhibitors for 24 hrs; activity is measured as ^3H-acetyl release.

[2] = system: p21WAF1/CIP1; experiment: p21 expression, Western blot in U937 cells; assay type: cell-based, human; conditions: U937, 6 and 16 hrs
Method: as §1
FIG. 3: a) Cell cycle and apoptosis analysis carried out in U937 cells after 24 hrs with the indicated compounds; values are media of independent triplicates; b) CD11c expression analysis carried out in U937 cells with the indicated compounds; values are media of independent duplicates; c) Tubuline acetylation and p21 expression levels in U937 cells after 24 hrs with the indicated treatments; total ERKs expression levels are used for equal loading; d) acetylation of histone H3 under the conditions indicated in (c).
For the determination of p21^WAF1/CIP1 and p16^INK4 100 μg of total protein extracts were separated on a 15% polyacrylammide gels and blotted. Western blots were shown for p21 (Transduction Laboratories, dilution 1:500), p16 (Santa Cruz) and total ERKs (Santa Cruz) were used to normalise for equal loading. For alpha-tubulin acetylation 25 μg of total protein extracts were separated on a 10% polyacrylamide gels and blotted. […]

[3] = system: RARβ2 promoter; experiment: Methylation specific PCR for the RARβ gene; assay type: cell-based; conditions: 16 and 24 hrs
Method: (§2) FIG. 2: a) Methylation specific PCR for the RARβ gene after 16 and 24 hrs of treatment with the indicated compounds; b) Methylation specific PCR for the p16 gene after 24 hrs of the indicated treatments. Samples are representative of real duplicates; c) p16 expression levels in U937 cells after 24 hrs with the indicated treatments; d) DNMT enzymatic in vitro assay carried out with 1.5 and 50 μM of the indicated compounds;
Cells were resuspended into 150 μl of TE (Tris 10 mM—EDTA 1 mM). 1.5 mL of lysis buffer (10 mM Tris pH 8.0—0.1 mM EDTA pH 8.0—0.5% SDS—20 μg/ml Rnase Dnase-free) were added, and after an incubation time of 1 h at 37° C., a second incubation at 56° C. with proteinase K at 100 μg/ml final concentration was performed over night. Proteins were removed by phenol-chloroform extraction. The genomic DNA was then precipitated with 0.2 vol. of 10M ammonium acetate and 2 vol. ethanol, and centrifuged at 13000 rpm for 5 min. The DNA pellet was washed with 70% ethanol, air dried and resuspended in nuclease free water at 4° C. on rocking table. The concentration was measured at 260 nm. […]
20 μg of genomic DNA (or in vitro methylated DNA) were mixed with 5.5 μl of 3M NaOH, the volume was adjusted to 55.5 μl with filtered water. […] The PCR product (10 μl+5 μl loading dye) was analyzed on 1.5% agarose gel.

[4] = system: p16INK4a promoter; experiment: Methylation specific PCR for the p16 gene; assay type: cell-based; conditions: 24 hrs
Method: as §2
DNA extraction was performed as described below. Bisulfite treatment and PCR for the determination of p16 methylation was performed as described from the suppliers (Chemicon).

[5] = system: TRAIL promoter; experiment: Histone H3 acetylation at the TRAIL locus (Chip and qPCR) in U937 cells; assay type: cell-based, human; conditions: U937, time course
Method: FIG. 5: a) Analysis of the histone H3 acetylation levels on the TRAIL promoter regulatory region and on the TRAIL gene first intron carried out Chip and qPCR in U937 cells after the indicated time course with UVI5008; the ‘NoAb’ represents the negative control; b) TRAIL mRNA expression after the indicated times of incubation with UVI5008; G6PDH levels have been used for equal loading; c) TRAIL protein expression levels measured by ELISA assay in U937 cells after 24 hrs treatment with UVI5008.

[6] = system: HCT-116 cells; experiment: MTT cytotoxicity assay, HCT-116; conditions: read-out: IC50 values, MTT cytotoxicity assay; HCT-116, 48 h
Method: Plates were kept in the humidified CO2 (5%) incubator overnight so that cells get attached to the bottom. […] Viable cells cleave the MTT tetrazolium ring into a dark blue formazan reaction product, whereas dead cells remain colorless. The MTT-containing medium was gently removed and DMSO was added in each well. After shaking, the plates were read in absorbance at 540 nm. All results are expressed as the average of three wells. Percent cytotoxicity was measured of each compound and represented in terms of its IC50 values.

Compound: O=C(NCCSSCCNC(=O)C(Cc1c[nH]c2ccc(Br)cc12)=NO)C(Cc1c[nH]c2ccc(Br)cc12)=NO [UVI5008]
- apoptogenic effect (caspase 3) [1]: strongest apoptogenic effect
- expression of p21WAF1/CIP1 [2]: dramatically increased
- unmethylated RARβ2 (MSP) [3]: significant increase
- unmethylated p16INK4a promoter DNA (MSP) [4]: increased
- H3K9 acetylation of the chromatin at the TRAIL promoter [5]: rapid dramatic H3K9 acetylation
- IC50 [6]: 1.8 ± 0.1 µM
